Measured values as given in patent US10119966B2, “Method of detecting auto-antibodies from patients suffering from rheumatoid arthritis, a peptide and assay kit” (STICHTING VOOR DE TECHNISCHE WETENSCHAPPEN, priority 2001, dated 2018).
Non-standard residues stand in square brackets, D forms with d. No end group written: not given here. Cit = NC(=O)NCCC[C@H](N)C(=O)O

How the values were obtained:
Format in all cases: binding, human
[1] = test system: autoantibodies from patients suffering from rheumatoid arthritis (RA sera); assay: ELISA of coated peptides with sera from RA patients; conditions: for Sensitivity [%] cyclic / Sensitivity [%] Linear: 318 RA sera; for Sensitivity [%] Linear: linear variant; for assessment of cyclic variants (in words): cysteine-bromoacetic acid cyclisation
Experimental: The most interesting peptides were synthesised in a slightly larger quantity to form a linear and a cyclic variant, and in most cases in a citrulline and arginine (=control) variant. These peptides were tested for reactivity with a series of sera from RA patients. The peptides were coated to ELISA plates and incubated with sera from RA patients. Each serum was tested in duplicate. Sera from healthy persons were used as negative control. […]
(§1) Using the above-described methods, seven XG peptide units were tested for reactivity with the 318 sera mentioned in Table 2 from patients suffering from rheumatoid arthritis. The specificity was determined with the aid of sera mentioned in Table 2 from control patients and normal donors.
(§2) In accordance with the methods described in this document, five XnonG peptide units were tested for reactivity with the same 318 sera mentioned in Table 2 from patients suffering from rheumatoid arthritis. Specificity was again determined with the aid of the sera mentioned in Table 2 from control patients and normal donors.

[2] = test system: sera from control patients and normal donors; assay: ELISA with sera from patients with other diseases and normal sera (specificity); conditions: for % positive sera: cyclic peptide; for Specificity [%] cyclic: cyclic variant; for Specificity [%] cyclic / Specificity [%] linear: control patients and normal donors of Table 2; for Specificity [%] linear: linear variant
Experimental: (§3) The most interesting peptides were synthesised in a slightly larger quantity to form a linear and a cyclic variant, and in most cases in a citrulline and arginine (=control) variant. These peptides were tested for reactivity with a series of sera from RA patients. The peptides were coated to ELISA plates and incubated with sera from RA patients. Each serum was tested in duplicate. Sera from healthy persons were used as negative control.
The above table represents ELISAs with sera obtained from patients suffering from RA and from patients suffering from various other autoimmune diseases. […] The arginine variant of peptide 0002-36 (R on position 0 and +2, i.e., instead of Cit in the formula) was also tested and shown to be negative with all tested RA and normal sera.
as §1, §2

[3] = test system: XG-negative sera (RA sera comprising no XG reactive antibodies); assay: ELISA of XnonG peptides with RA sera that do not react with XG peptides; conditions: for Sensitivity [%] cyclic: cyclic variant; for Sensitivity [%] cyclic / Sensitivity [%] Linear: 80 of the 318 RA sera that did not react with any XG peptide of Table 6; for Sensitivity [%] Linear: linear variant
Experimental: as §3
The percentages mentioned in table 8 therefore show the percentage of the sera that did comprise antibodies to XnonG peptide units but comprised no XG reactive antibodies.

[4] = ELISA with 186 RA sera, cyclic variants
[5] = XnonG peptide units, cyclic variant
[6] = XG peptide units, cyclic variant
[7] = two cohorts of RA sera, in total 318 sera

For “0002-36 (cyclic): cyclic variant of peptide 0002-36, cyclisized by the cysteine-bromoacetic acid method (HQFRF[Cit]G[Cit]SRAA; thioether (positions not given here); not fully specified (bridges); printed as H Q F R F Cit G Cit S R A A; also: cyclised by cysteine-bromoacetic acid method, no Cys in given chain, ring places not given here)”, the positive sera ([1]; ELISA with 132 RA sera) was 71%, the “positive sera (number/total)” value ([1]; ELISA with 132 RA sera) was 94/132 and the positive sera [1, 4] was 71%. For the same substance, the “% positive sera” value ([1]; RA sera, N=318, cyclic peptide) was 71%, the “% positive sera” value ([2]; Colitis ulcerosa sera, N=40) was 0% and the “% positive sera” value ([2]; Crohn's disease sera, N=40) was 0%. For the same substance, the “% positive sera” value ([2]; Infectious diseases (malaria, chlamydia, mycoplasma, etc.) sera, N=250) was 1%, the “% positive sera” value ([2]; Normal human serum, N=84) was 0% and the “% positive sera” value ([2]; Osteoarthritis sera, N=29) was 0%. For the same substance, the “% positive sera” value ([2]; PM, Polymyositis sera, N=11) was 0%, the “% positive sera” value ([2]; Prim Sjögren's syndrome sera, N=34) was 3% and the “% positive sera” value ([2]; Psoriasis sera, N=10) was 0%. For the same substance, the “% positive sera” value ([2]; SSc Scleroderma sera, N=10) was 0%, the “% positive sera” value ([2]; Systemic Lupus Erythematodes sera, N=24) was 0% and the “% positive sera” value ([2]; Vasculitis sera, N=30) was 0%.
In the case of “0002-63 (cyclic): cyclic variant of peptide 0002-63 (HQFRF[Cit]GWSRAA; thioether (positions not given here); also: cyclised by cysteine-bromoacetyl thioether, Cys and bromoacetyl not shown in chain)”, the positive sera [1, 4] is reported as 71%.
In the case of “A R F Q M Cit H Cit R L I R (ARFQM[Cit]H[Cit]RLIR) [0107-35]”, the “Sensitivity [%] cyclic” value [1, 5] is reported as 61%, the “Sensitivity [%] Linear” value ([1]; XnonG peptide units) is reported as 52% and the “reacts with % of the sera that are not reactive with cyclic 0002-36” value ([3]; cyclic form) is reported as 18%. The “Sensitivity [%] cyclic” value [3] was 18%, the “Sensitivity [%] Linear” value [3] was 17% and the “Specificity [%] cyclic” value ([2]; XnonG peptide units) was 99%. For the same substance, the “Specificity [%] linear” value ([2]; XnonG peptide units) was 98%.
In the case of “A R F Q M R H Cit R L I R (ARFQMRH[Cit]RLIR) [0113-30]”, the “Sensitivity [%] cyclic” value [1, 5] is reported as 71%, the “Sensitivity [%] Linear” value ([1]; XnonG peptide units) is reported as 49% and the “Sensitivity [%] cyclic” value [3] is reported as 19%. The “Sensitivity [%] Linear” value [3] was 18%, the “Specificity [%] cyclic” value ([2]; XnonG peptide units) was 100% and the “Specificity [%] linear” value ([2]; XnonG peptide units) was 99%.
In the case of G V Y L V R Cit L Cit M M R [0218-36], the “Sensitivity [%] cyclic” value [1, 5] is reported as 70%, the “Sensitivity [%] Linear” value ([1]; XnonG peptide units) is reported as 50% and the “Sensitivity [%] cyclic” value [3] is reported as 17%. The “Sensitivity [%] Linear” value [3] was 17%, the “Specificity [%] cyclic” value ([2]; XnonG peptide units) was 98% and the “Specificity [%] linear” value ([2]; XnonG peptide units) was 98%.
With GFFSA[Cit]GHRPLD [0101-7] the “reacted with % of RA sera” value ([1]; cyclic variant, 186 RA-sera) was 45% and the “reacted with % of the sera” value ([1]; linear peptide) was 55%.
With “H Q F R F Cit G Cit S R A A (HQFRF[Cit]G[Cit]SRAA) [0002-36 (linear)]” the positive sera ([1]; ELISA with 132 RA sera) was 61% and the “positive sera (number/total)” value ([1]; ELISA with 132 RA sera) was 80/132.
For “H Q F R F Cit G Cit S R A A (HQFRF[Cit]G[Cit]SRAA) [0002-36]”, the “reactivity with RA sera (in words)” value [1] was “very satisfactory”, the “Sensitivity [%] cyclic” value [1, 6] was 71% and the “Sensitivity [%] Linear” value ([1]; XG peptide units) was 61%. The “assessment of cyclic variants (in words)” value ([1]; cyclic variants) was “of interest”, the “OD-values, cyclic versus linear variant” value [1, 7] was “much higher” and the “frequency of reaction, cyclic versus linear variant” value [1, 7] was “react more frequently (and better) than the linear variant”. The “Specificity [%] cyclic” value ([2]; XG peptide units) was 99% and the “Specificity [%] linear” value ([2]; XG peptide units) was 99%.
For “H Q K R G Cit G W S R A A (HQKRG[Cit]GWSRAA) [0002-27]”, the “Sensitivity [%] cyclic” value [1, 6] was 71%, the “Sensitivity [%] Linear” value ([1]; XG peptide units) was 56% and the “assessment of cyclic variants (in words)” value ([1]; cyclic variants) was “of interest”. The “Specificity [%] cyclic” value ([2]; XG peptide units) was 98% and the “Specificity [%] linear” value ([2]; XG peptide units) was 98%.
With “H Q K W R Cit G R S Cit A A (HQKWR[Cit]GRS[Cit]AA) [0002-37]” the “Sensitivity [%] cyclic” value [1, 6] was 70%, the “Sensitivity [%] Linear” value ([1]; XG peptide units) was 60% and the “Specificity [%] cyclic” value ([2]; XG peptide units) was 98%. The “Specificity [%] linear” value ([2]; XG peptide units) was 98%.
For “H Q R R T Cit G G S R A A (HQRRT[Cit]GGSRAA) [0002-31]”, the “Sensitivity [%] cyclic” value [1, 6] was 69%, the “Sensitivity [%] Linear” value ([1]; XG peptide units) was 51% and the “assessment of cyclic variants (in words)” value ([1]; cyclic variants) was “of interest”. The “Specificity [%] cyclic” value ([2]; XG peptide units) was 98% and the “Specificity [%] linear” value ([2]; XG peptide units) was 98%.
“H Q R R V Cit G W S R A A (HQRRV[Cit]GWSRAA) [0002-29]” was tested, and the “Sensitivity [%] cyclic” value [1, 6] was 70%, the “Sensitivity [%] Linear” value ([1]; XG peptide units) was 57% and the “assessment of cyclic variants (in words)” value ([1]; cyclic variants) was “of interest”. The “Specificity [%] cyclic” value ([2]; XG peptide units) was 98% and the “Specificity [%] linear” value ([2]; XG peptide units) was 98%.
For HQFRF[Cit]GWSRAA [0002-63], the “reactivity with RA sera (in words)” value [1] was “very satisfactory”, the “Sensitivity [%] cyclic” value [1, 6] was 71% and the “Sensitivity [%] Linear” value ([1]; XG peptide units) was 60%. For the same substance, the “assessment of cyclic variants (in words)” value ([1]; cyclic variants) was “of interest”, the “Specificity [%] cyclic” value ([2]; XG peptide units) was 98% and the “Specificity [%] linear” value ([2]; XG peptide units) was 98%.
For HQRKW[Cit]GASRAA [0002-32], the “Sensitivity [%] cyclic” value [1, 6] was 71%, the “Sensitivity [%] Linear” value ([1]; XG peptide units) was 61% and the “Specificity [%] cyclic” value ([2]; XG peptide units) was 98%. For the same substance, the “Specificity [%] linear” value ([2]; XG peptide units) was 98%.
With HQWNR[Cit]GWSRAA [0002-35] the “reactivity with RA sera (in words)” value [1] was “very satisfactory”.
“K P Y T V Cit K F M R R P (KPYTV[Cit]KFMRRP) [0107-32]” was tested, and the “Sensitivity [%] cyclic” value [1, 5] was 63%, the “Sensitivity [%] Linear” value ([1]; XnonG peptide units) was 48% and the further % added ([3]; cyclic peptide, added to cyclic 0107-35) was 8%. The “Sensitivity [%] cyclic” value [3] was 18%, the “Sensitivity [%] Linear” value [3] was 15% and the “Specificity [%] cyclic” value ([2]; XnonG peptide units) was 98%. For the same substance, the “Specificity [%] linear” value ([2]; XnonG peptide units) was 98%.
For “Y S F V W Cit S H A R P R (YSFVW[Cit]SHARPR) [0107-45]”, the “Sensitivity [%] cyclic” value [1, 5] was 69%, the “Sensitivity [%] Linear” value ([1]; XnonG peptide units) was 51% and the “Sensitivity [%] cyclic” value [3] was 18%. The “Sensitivity [%] Linear” value [3] was 16%, the “Specificity [%] cyclic” value ([2]; XnonG peptide units) was 99% and the “Specificity [%] linear” value ([2]; XnonG peptide units) was 98%.
For “arginine variant of peptide 0002-36: R on position 0 and +2, i.e., instead of Cit in the formula; control variant (HQFRFRGRSRAA) [reference compound]”, the “reactivity with RA sera” value ([1]; all tested RA sera) was “negative” and the “reactivity with normal sera” value ([2]; all tested normal sera) was “negative”.
